Measured values: US6352722B1, “Derivatized carbohydrates, compositions comprised thereof and methods of use thereof” (Quadrant Holdings Cambridge Limited, priority 1997, dated 2002)

assay: Glass transition temperature (Tg) of derivatized carbohydrates, by DSC; type: physicochemical; conditions: derivatized carbohydrate alone, Tables 1-4
From the text: The reaction product can be characterized structurally by methods known in the art, including, but not limited to, nuclear magnetic resonance spectroscopy (NMR) and its material science properties characterized by differential scanning calorimetry (DSC). The characteristic melting points and Tgs (glass transition temperatures) for the derivatized carbohydrates can also be determined by DSC and other methods known in the art.
The carbohydrate derivatives were routinely synthesized by standard esterification of the carbohydrate with the chloride of the desired hydrocarbon side chain under anhydrous conditions and the resulting derivatives purified by standard techniques of solvent extraction and re-crystallization. For example, trehalose octa-3,3-dimethylbutyrate was synthesized by reacting 3,3,-dimethylbutyroyl chloride with trehalose in anhydrous pyridine, followed by extraction with ether, hydrochloric acid, potassium carbonate solution and water and finally re-crystallized twice from alcohol to yield colorless, needle-like crystals (˜80% yield) of m.pt 138-140° C., αD 112°. Trehalose hexa-3,3-dimethylbutyrate (THEX) can be prepared by protecting the 6,6′-hydroxy group of trehalose with a bulky group such as trityl or t-butyldiphenylsilyl, for example by heating trehalose and trityl chloride in pyridine. The 6,6′-ditrityltrehalose can be acylated with 3,3-dimethylbutyroyl chloride in pyridine to give 6,6′-ditritylhexa-3,3-dimethylbutyryltrehalose. The trityl group can be removed by strong acid, for example hydrogen bromide in acetic acid, to give THEX. TACT can be prepared by acylating THEX with acetic anhydride in pyridine. Suitable work-up yields the HDC in crystalline form. The physical characteristics, melting points and glass transition temperatures (Tg, ° C.) of selected carbohydrate derivatives are shown in Tables 1-5.

Row | Compound | Tg(° C.)
1 | CC(C)C(=O)OCC1O[C@H](OCC2O[C@@H](O[C@]3(COC(=O)C(C)C)O[C@H](COC(=O)C(C)C)[C@@H](OC(=O)C(C)C)[C@H]3OC(=O)C(C)C)C(OC(=O)C(C)C)[C@@H](OC(=O)C(C)C)[C@@H]2OC(=O)C(C)C)C(OC(=O)C(C)C)[C@@H](OC(=O)C(C)C)[C@H]1OC(=O)C(C)C (some centres unmarked) [Raffinose undeca-isobutyrate] | 15 °C
2 | CC(=O)OCC1OC(OC2OC(COC(C)=O)C(OC(=O)C(C)C)C(OC(C)=O)C2OC(C)=O)C(OC(C)=O)C(OC(C)=O)C1OC(=O)C(C)C (centres unmarked) [Trehalose 4,4′-diisobutyrate hexaacetate] | 41 °C
3 | CCC(=O)OC1C(COC(C)=O)OC(OC2OC(COC(C)=O)C(OC(=O)CC)C(OC(C)=O)C2OC(C)=O)C(OC(C)=O)C1OC(C)=O (centres unmarked) [Trehalose 4,4′-dipropionate hexaactetate] | 42 °C
4 | CC(=O)OC1C(COC(=O)C(C)(C)C)OC(OC2OC(COC(=O)C(C)(C)C)C(OC(C)=O)C(OC(C)=O)C2OC(C)=O)C(OC(C)=O)C1OC(C)=O (centres unmarked) [Trehalose 6,6′ dipivalate hexaacetate] | 56 °C
5 | CCC(CC)C(=O)OC[C@H]1O[C@H](O[C@H]2O[C@H](COC(=O)C(CC)CC)[C@@H](OC(C)=O)[C@H](OC(C)=O)[C@H]2OC(C)=O)[C@H](OC(C)=O)[C@@H](OC(C)=O)[C@@H]1OC(C)=O [Trehalose 6,6′-di-(2-ethylbutyrate) hexaacetate] | 30 °C
6 | CC(=O)O[C@@H]1[C@@H](OC(C)=O)[C@@H](O[C@H]2O[C@H](COC(=O)CC(C)(C)C)[C@@H](OC(C)=O)[C@H](OC(C)=O)[C@H]2OC(C)=O)O[C@H](COC(=O)CC(C)(C)C)[C@H]1OC(C)=O [Trehalose 6,6′-di-(3,3-dimethylbutyrate) hexaacetate] | 50 °C
7 | CC(=O)OC1C(COC(=O)C(C)C)OC(OC2OC(COC(=O)C(C)C)C(OC(C)=O)C(OC(C)=O)C2OC(C)=O)C(OC(C)=O)C1OC(C)=O (centres unmarked) [Trehalose 6,6′-diisobutyrate hexaacetate] | 42 °C
8 | CCC(=O)OC[C@H]1O[C@H](O[C@H]2O[C@H](COC(=O)CC)[C@@H](OC(C)=O)[C@H](OC(C)=O)[C@H]2OC(C)=O)[C@H](OC(C)=O)[C@@H](OC(C)=O)[C@@H]1OC(C)=O [Trehalose 6,6′-dipropionate hexaactetate] | 43 °C
9 | CCC(C)(C)C(=O)OC[C@H]1O[C@H](O[C@H]2O[C@H](COC(=O)C(C)(C)CC)[C@@H](OC(C)=O)[C@H](OC(C)=O)[C@H]2OC(C)=O)[C@H](OC(C)=O)[C@@H](OC(C)=O)[C@@H]1OC(C)=O [Trehalose 6,6′di-(2,2-dimethylbutyrate) hexaacetate] | 47 °C
10 | CCCC(=O)OC[C@H]1O[C@H](O[C@H]2O[C@H](COC(=O)CCC)[C@@H](OC(=O)CCC)[C@H](OC(=O)CCC)[C@H]2OC(=O)CCC)[C@H](OC(=O)CCC)[C@@H](OC(=O)CCC)[C@@H]1OC(=O)CCC [Trehalose octabutyrate, reference compound] | syrup
11 | CC(C)C(=O)OCC1O[C@@H](O[C@H]2OC(COC(=O)C(C)C)[C@@H](OC(=O)C(C)C)[C@H](OC(=O)C(C)C)C2OC(=O)C(C)C)C(OC(=O)C(C)C)C(OC(=O)C(C)C)[C@H]1OC(=O)C(C)C (some centres unmarked) [Trehalose octaisobutyrate] | 7 °C
12 | CCC(=O)OCC1O[C@@H](O[C@H]2OC(COC(=O)CC)[C@@H](OC(=O)CC)[C@H](OC(=O)CC)C2OC(=O)CC)C(OC(=O)CC)C(OC(=O)CC)[C@H]1OC(=O)CC (some centres unmarked) [Trehalose octapropionate, reference compound] | 3 °C
13 | CCCCC(=O)OCC1OC(OC2OC(COC(=O)CCCC)C(OC(=O)CCCC)C(OC(=O)CCCC)C2OC(=O)CCCC)C(OC(=O)CCCC)C(OC(=O)CCCC)C1OC(=O)CCCC (centres unmarked) [Trehalose octavalerate, reference compound] | syrup
14 | CC(=O)OC[C@H]1O[C@@H](O[C@H]2[C@H](OC(C)=O)[C@@H](OC(C)=O)C(OC(C)=O)O[C@@H]2COC(C)=O)[C@H](OC(C)=O)[C@@H](OC(C)=O)[C@H]1OC(C)=O (stereo partly drawn) [α, β-Lactose octaacetate, reference compound] | 67 °C
15 | CC(=O)O[C@@H]1[C@@H](OC(=O)CC(C)(C)C)[C@@H](OC(=O)CC(C)(C)C)O[C@H](COC(=O)CC(C)(C)C)[C@H]1O[C@@H]1O[C@H](COC(=O)CC(C)(C)C)[C@H](OC(=O)CC(C)(C)C)[C@H](OC(=O)CC(C)(C)C)[C@H]1OC(=O)CC(C)(C)C [α-Lactose 3-acetyl-hepta-3,3-dimethylbutyrate] | 48 °C
16 | CC(C)(C)CC(=O)OC[C@H]1O[C@@H](O[C@H]2[C@H](OC(=O)CC(C)(C)C)[C@@H](OC(=O)CC(C)(C)C)[C@@H](OC(=O)CC(C)(C)C)O[C@@H]2COC(=O)CC(C)(C)C)[C@H](OC(=O)CC(C)(C)C)[C@@H](OC(=O)CC(C)(C)C)[C@H]1OC(=O)CC(C)(C)C [α-Lactose octa-3,3-dimethyl-butyrate] | 53 °C
17 | CC(=O)OC[C@H]1O[C@@H](O[C@H]2[C@H](OC(C)=O)[C@@H](OC(C)=O)[C@@H](OC(C)=O)O[C@@H]2COC(C)=O)[C@H](OC(C)=O)[C@@H](OC(C)=O)[C@H]1OC(C)=O [α-Lactose octaacetate, reference compound] | 70 °C
18 | CCO[C@@H]1O[C@H](COC(C)=O)[C@@H](O[C@@H]2O[C@H](COC(C)=O)[C@@H](OC(C)=O)[C@H](OC(C)=O)[C@H]2OC(C)=O)[C@H](OC(C)=O)[C@H]1OC(C)=O [β-Cellobiose ethyl heptaacetate] | 52 °C
19 | CO[C@@H]1O[C@H](COC(C)=O)[C@@H](O[C@@H]2O[C@H](COC(C)=O)[C@@H](OC(C)=O)[C@H](OC(C)=O)[C@H]2OC(C)=O)[C@H](OC(C)=O)[C@H]1OC(C)=O [β-Cellobiose methyl heptaacetate] | 77 °C
20 | CCC(=O)OC[C@H]1O[C@@H](O[C@H]2[C@H](OC(=O)CC)[C@@H](OC(=O)CC)[C@H](OC(=O)CC)O[C@@H]2COC(=O)CC)[C@H](OC(=O)CC)[C@@H](OC(=O)CC)[C@@H]1OC(=O)CC [β-Cellobiose octapropionate, reference compound] | 15 °C
21 | CC(=O)OC[C@H]1O[C@@H](O[C@H]2[C@H](OC(C)=O)[C@@H](OC(C)=O)[C@H](OC(=O)C(C)C)O[C@@H]2COC(C)=O)[C@H](OC(C)=O)[C@@H](OC(C)=O)[C@H]1OC(C)=O [β-Lactose isobutyrate heptaacetate] | 60 °C
22 | CC(=O)OC[C@H]1O[C@@H](O[C@H]2[C@H](OC(C)=O)[C@@H](OC(C)=O)[C@H](OC(C)=O)O[C@@H]2COC(C)=O)[C@H](OC(C)=O)[C@@H](OC(C)=O)[C@H]1OC(C)=O [β-Lactose octaacetate, reference compound] | 63 °C
23 | CC(C)(C)C(=O)OC[C@H]1O[C@@H](O[C@H]2[C@H](OC(=O)C(C)(C)C)[C@@H](OC(=O)C(C)(C)C)[C@H](OC(=O)C(C)(C)C)O[C@@H]2COC(=O)C(C)(C)C)[C@H](OC(=O)C(C)(C)C)[C@@H](OC(=O)C(C)(C)C)[C@H]1OC(=O)C(C)(C)C [β-Lactose octapivalate] | 88 °C
24 | Trehalose heptapivalate | 73 °C
25 | Trehalose pentapivalate | 81 °C
26 | Trehalose tetrapivalate | 96 °C
